From patent US8263606B2 (Xenon Pharmaceuticals Inc., priority 2008, dated 2012)
Counter-ions that a name gives are not always drawn.

Columns and labels:
sodium channel = test: Guanidine influx assay (14C-guanidine radiotracer flux, in vitro); type: cell-based, human or rat; conditions: guanidine influx assay using a known cell line that expresses a sodium channel
Method in brief: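 Cells stably expressing human or rat sodium channels (~100,000/well, 20–24 h) were exposed in low-sodium choline buffer to test agent plus aconitine activator and 14C-guanidine at ambient temperature. Intracellular 14C-guanidine was counted by scintillation; IC50 fitted by 4-parameter logistic over half-dilutions around 1 μM.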

CYP3A4 = CYP3A4 (Homo sapiens, UniProt P08684); test: Cytochrome P450 (CYP450) Inhibition Assay, CYP3A4 (Vivid fluorescence, BOMCC substrate); conditions: human, P450 Baculosomes (recombinant CYP3A4), probe BOMCC (Vivid substrate)
Chain of CYP3A4 (P08684 whole entry): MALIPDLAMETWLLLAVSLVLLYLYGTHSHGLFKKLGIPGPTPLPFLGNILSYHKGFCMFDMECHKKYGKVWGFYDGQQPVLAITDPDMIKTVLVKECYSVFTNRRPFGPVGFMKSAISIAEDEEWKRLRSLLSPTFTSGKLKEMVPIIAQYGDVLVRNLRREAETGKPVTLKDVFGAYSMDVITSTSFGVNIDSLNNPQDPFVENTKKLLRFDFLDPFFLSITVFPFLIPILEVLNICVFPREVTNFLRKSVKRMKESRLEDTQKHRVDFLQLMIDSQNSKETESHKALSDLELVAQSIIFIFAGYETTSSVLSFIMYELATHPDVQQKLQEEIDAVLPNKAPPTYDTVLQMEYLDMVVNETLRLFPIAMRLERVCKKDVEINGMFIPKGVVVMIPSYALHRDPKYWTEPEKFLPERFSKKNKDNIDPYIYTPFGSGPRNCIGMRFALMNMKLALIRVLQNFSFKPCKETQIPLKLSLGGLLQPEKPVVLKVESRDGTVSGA

melting point	IC50 (sodium channel)	inhibition at 10 µM (CYP3A4)	Structure (SMILES)
167 °C (dec.)			CC(C)N1CCC(CN2C(=O)C3(COc4cc5c(cc43)CCO5)c3ccccc32)CC1.Cl (stereo not shown)
135 °C (dec.)			CCN1CCC(CN2C(=O)C3(COc4cc5c(cc43)CCO5)c3ccccc32)CC1.Cl (stereo not shown)
> 175 °C (dec.)			CN1CCN(CN2C(=O)C3(COc4cc5c(cc43)OCO5)c3ccccc32)CC1 (stereo not shown) (as salt: chloride) [Example 11.63, 1′-[(4-methylpiperazin-1-yl)methyl]spiro[furo[2,3-f][1,3]benzodioxole-7,3′-indol]-2′(1′H)-one hydrogen chloride]
> 200 °C (dec.)			COc1cc2c(cc1C)[C@@]1(CO2)C(=O)N(CN2CCN(C)CC2)c2ccccc21 (as salt: chloride) [Example 11.64, (3S)-6-methoxy-5-methyl-1′-[(4-methylpiperazin-1-yl)methyl]spiro[1-benzofuran-3,3′-indol]-2′(1′H)-one hydrogen chloride]
> 200 °C (dec.)			COc1cc2c(cc1C)[C@]1(CO2)C(=O)N(CN2CCN(C)CC2)c2ccccc21 (as salt: chloride) [Example 11.65, (3R)-6-methoxy-5-methyl-1′-[(4-methylpiperazin-1-yl)methyl]spiro[1-benzofuran-3,3′-indol]-2′(1′H)-one hydrogen chloride]
181 °C (dec.)			CN1CCN(CN2C(=O)C3(COc4cc5c(cc43)CCO5)c3ccccc32)CC1 (stereo not shown) (as salt: hydrochloride)
162 to 164 °C			CN1CCC(CN2C(=O)C3(COc4cc(F)c(F)cc43)c3ccccc32)CC1 (stereo not shown) (as salt: hydrochloride) [Example 11.112, 5,6-difluoro-1′-[(1-methylpiperidin-4-yl)methyl]spiro[1-benzofuran-3,3′-indol]-2′(1′H)-one hydrochloride]
191 to 195 °C			Cc1noc2cc3c(cc12)C1(CO3)C(=O)N(Cc2ccc(-c3cc(N)n[nH]3)cc2)c2ccccc21 (stereo not shown) (as salt: hydrochloride) [Example 29.1, 1′-[4-(3-amino-1H-pyrazol-5-yl)benzyl]-3-methylspiro[furo[3,2-f][1,2]benzisoxazole-5,3′-indol]-2′(1′H)-one hydrochloride]
198 to 201 °C			Nc1cc(-c2ccc(CN3C(=O)C4(COc5cc6c(cc54)OCCO6)c4ccccc43)cc2)[nH]n1 (stereo not shown) (as salt: hydrochloride) [Example 29.2, 1′-[4-(3-amino-1H-pyrazol-5-yl)benzyl]-2,3-dihydrospiro[furo[2,3-g][1,4]benzodioxine-8,3′-indol]-2′(1′H)-one hydrochloride]
153 to 162 °C			O=C1N(Cc2ccc(N[C@@H]3CCNC3)cc2)c2ccccc2C12COc1cc(F)c(F)cc12 (stereo partly drawn) (as salt: hydrochloride) [Example 33.2, 5,6-difluoro-1′-{4-[(3R)-pyrrolidin-3-ylamino]benzyl}spiro[1-benzofuran-3,3′-indol]-2′(1′H)-one hydrochloride]
228 to 229 °C			O=C1N(C(c2ccccc2)c2ccccc2)c2ccc(F)cc2C12COc1cc3c(cc12)CCO3 (stereo not shown) [Example 2.4, 1′-(diphenylmethyl)-5′-fluoro-5,6-dihydrospiro[benzo[1,2-b:5,4-b′]difuran-3,3′-indol]-2′(1′H)-one]
194 to 196 °C			O=C1N(C(c2ccccc2)c2ccccc2)c2cc(F)ccc2C12COc1cc3c(cc12)CCO3 (stereo not shown) [Example 2.5, 1′-(diphenylmethyl)-6′-fluoro-5,6-dihydrospiro[benzo[1,2-b:5,4-b′]difuran-3,3′-indol]-2′(1′H)-one]
208 to 211 °C			O=C1N(C(c2ccccc2)c2ccccc2)c2ccccc2C12COc1cc3c(cc12)CCCO3 (stereo not shown) [Example 2.12, 1′-(diphenylmethyl)-6,7-dihydro-5H-spiro[furo[3,2-g]chromene-3,3′-indol]-2′(1′H)-one]
165 to 168 °C			O=C1N(C(c2ccccc2)c2ccccc2)c2ccccc2C12COc1cc3c(cc12)OCCCO3 (stereo not shown) [Example 2.13, 1′-(diphenylmethyl)-3,4-dihydro-2H-spiro[furo[2,3-h][1,5]benzodioxepine-9,3′-indol]-2′(1′H)-one]
81 to 82 °C			Cc1ccc(F)c2c1N(C(c1ccccc1)c1ccccc1)C(=O)C21COc2cc3c(cc21)CCO3 (stereo not shown) [Example 2.19, 1′-(diphenylmethyl)-4′-fluoro-7′-methyl-5,6-dihydrospiro[benzo[1,2-b:5,4-b′]difuran-3,3′-indol]-2′(1′H)-one]
183 to 184 °C			O=C1N(C(c2ccccc2)c2ccccc2)c2c(F)cccc2C12COc1cc3c(cc12)CCO3 (stereo not shown) [Example 2.20, 1′-(diphenylmethyl)-7′-fluoro-5,6-dihydrospiro[benzo[1,2-b:5,4-b′]difuran-3,3′-indol]-2′(1′H)-one]
259 to 261 °C			O=C1Nc2ccccc2C12COc1ccc3c(c12)OCCO3 (stereo not shown) [Example 3.43, 2,3-dihydrospiro[furo[3,2-f][1,4]benzodioxine-9,3′-indol]-2′(1′H)-one]
148 to 150 °C			O=C1N(Cc2ccc(Br)cc2)c2ccccc2C12COc1cc3c(cc12)OCO3 (stereo not shown) [Example 4.1, 1′-(4-bromobenzyl)spiro[furo[2,3-f][1,3]benzodioxole-7,3′-indol]-2′(1′H)-one]
91 to 95 °C			C[n+]1c(Cl)c[nH]c1CN1C(=O)C2(COc3cc4c(cc32)OCCO4)c2ccccc21 (stereo not shown) [Example 4.39, 1′-[(5-chloro-1-methyl-1H-imidazol-2-yl)methyl]-2,3-dihydrospiro[furo[2,3-g][1,4]benzodioxine-8,3′-indol]-2′(1′H)-one]
137 to 139 °C			Cc1ccc2c(c1)C1(COc3cc4c(cc31)OCCO4)C(=O)N2Cc1ncccc1C(F)(F)F (stereo not shown) [Example 4.115, 5′-methyl-1′-{[3-(trifluoromethyl)pyridin-2-yl]methyl}-2,3-dihydrospiro[furo[2,3-g][1,4]benzodioxine-8,3′-indol]-2′(1′H)-one]
161 to 162 °C			N#CCN1C(=O)C2(COc3cc4c(cc32)OCCO4)c2ccccc21 (stereo not shown) [Example 5.24, (2′-oxo-2,3-dihydrospiro[furo[2,3-g][1,4]benzodioxine-8,3′-indol]-1′(2′H)-yl)acetonitrile]
147 to 148 °C			COc1ccc(CN2C(=O)C3(COc4cc5c(cc43)OCO5)c3ccccc32)cc1 (stereo not shown) [Example 7, 1′-(4-methoxybenzyl)spiro[furo[2,3-f][1,3]benzodioxole-7,3′-indol]-2′(1′H)-one]
	0.1 to 1 µM	> 50%	O=C1N(C[C@H]2CCCO2)c2cccc(-c3cccc4c3sc3ccccc34)c2C12COc1cc3c(cc12)CCO3 (stereo partly drawn) [Example 16.2, 4′-dibenzo[b,d]thiophen-4-yl-1′-[(2R)-tetrahydrofuran-2-ylmethyl]-5,6-dihydrospiro[benzo[1,2-b:5,4-b′]difuran-3,3′-indol]-2′(1′H)-one]
	1 to 10 µM	> 50%	O=C1N(C[C@H]2CCCO2)c2cccc(-c3csc4ccccc34)c2C12COc1cc3c(cc12)CCO3 (stereo partly drawn) [Example 16.3, 4′-(1-benzothiophen-3-yl)-1′-[(2R)-tetrahydrofuran-2-ylmethyl]-5,6-dihydrospiro[benzo[1,2-b:5,4-b′]difuran-3,3′-indol]-2′(1′H)-one]
	0.1 to 1 µM	> 50%	Cn1ccc2cc(-c3cccc4c3C3(COc5cc6c(cc53)CCO6)C(=O)N4C[C@H]3CCCO3)ccc21 (stereo partly drawn) [Example 16.4, 4′-(1-methyl-1H-indol-5-yl)-1′-[(2R)-tetrahydrofuran-2-ylmethyl]-5,6-dihydrospiro[benzo[1,2-b:5,4-b′]difuran-3,3′-indol]-2′(1′H)-one]
	0.1 to 1 µM	> 50%	O=C1N(C[C@H]2CCCO2)c2cccc(-c3cc(C(F)(F)F)cc(C(F)(F)F)c3)c2C12COc1cc3c(cc12)CCO3 (stereo partly drawn) [Example 16.5, 4′-[3,5-bis(trifluoromethyl)phenyl]-1′-[(2R)-tetrahydrofuran-2-ylmethyl]-5,6-dihydrospiro[benzo[1,2-b:5,4-b′]difuran-3,3′-indol]-2′(1′H)-one]
	0.1 to 1 µM	> 50%	Cc1noc2cc3c(cc12)C1(CO3)C(=O)N(Cc2ccc(-c3cc(N)n[nH]3)cc2)c2ccccc21 (stereo not shown) [Example 29.1, 1′-[4-(3-amino-1H-pyrazol-5-yl)benzyl]-3-methylspiro[furo[3,2-f][1,2]benzisoxazole-5,3′-indol]-2′(1′H)-one hydrochloride]
	0.1 to 1 µM	> 50%	Nc1cc(-c2ccc(CN3C(=O)C4(COc5cc6c(cc54)OCCO6)c4ccccc43)cc2)[nH]n1 (stereo not shown) [Example 29.2, 1′-[4-(3-amino-1H-pyrazol-5-yl)benzyl]-2,3-dihydrospiro[furo[2,3-g][1,4]benzodioxine-8,3′-indol]-2′(1′H)-one hydrochloride]
	1 to 10 µM	> 50%	O=C1N(Cc2ccc(N[C@@H]3CCNC3)cc2)c2ccccc2C12COc1cc(F)c(F)cc12 (stereo partly drawn) [Example 33.2, 5,6-difluoro-1′-{4-[(3R)-pyrrolidin-3-ylamino]benzyl}spiro[1-benzofuran-3,3′-indol]-2′(1′H)-one hydrochloride]
	0.001 to 0.1 µM	> 50%	NC(=O)c1cccc(CN2C(=O)C3(COc4cc5c(cc43)OCCO5)c3ccccc32)n1 (stereo not shown) [Example 42, 6-[(2′-oxo-2,3-dihydrospiro[furo[2,3-g][1,4]benzodioxine-8,3′-indol]-1′(2′H)-yl)methyl]pyridine-2-carboxamide]

Structure (SMILES)	melting point	IC50 (sodium channel)	inhibition at 10 µM (CYP3A4)
CCCCOc1ccc(-c2cccc3c2C2(COc4cc5c(cc42)CCO5)C(=O)N3C[C@H]2CCCO2)cc1 (stereo partly drawn) [Example 16.8, 4′-(4-butoxyphenyl)-1′-[(2R)-tetrahydrofuran-2-ylmethyl]-5,6-dihydrospiro[benzo[1,2-b:5,4-b′]difuran-3,3′-indol]-2′(1′H)-one]		0.1 to 1 µM	< 50%
